The NIST ThermoML archive (doi:10.1016/j.jct.2004.04.003)
“And” between values parts separate entries of the source, which are not always exact repeats. Identical values can stand only once.

Experiments:
[1] = for vapor or sublimation pressure: Twin ebulliometer; for Triple point temperature: Adiabatic calorimetry
[2] = Molar enthalpy of transition or fusion; settings: Adiabatic calorimetry
[3] = molar heat capacity at saturation pressure

C1CCC(C2CCCC2)C1 [1,1'-bicyclopentyl]
Settings	Critical temperature [K]	mass density [kg/m3]	molar heat capacity	vapor or sublimation pressure [kPa]
[1], 384 K, Liquid	–	–	–	9.59
[1], 387.47 K, Liquid	–	–	–	10.89
[1], 390.95 K, Liquid	–	–	–	12.35
[1], 394.45 K, Liquid	–	–	–	13.96
[1], 397.96 K, Liquid	–	–	–	15.75
[1], 401.49 K, Liquid	–	–	–	17.74
[1], 405.02 K, Liquid	–	–	–	19.93
[1], 405.03 K, Liquid	–	–	–	19.93
[1], 412.15 K, Liquid	–	–	–	25.02
[1], 419.33 K, Liquid	–	–	–	31.18
[1], 426.57 K, Liquid	–	–	–	38.56
[1], 433.87 K, Liquid	–	–	–	47.38
[1], 441.22 K, Liquid	–	–	–	57.82
[1], 448.61 K, Liquid	–	–	–	70.12
[1], 456.08 K, Liquid	–	–	–	84.53
[1], 463.61 K, Liquid	–	–	–	101.33
[1], 471.19 K, Liquid	–	–	–	120.79
[1], 478.83 K, Liquid	–	–	–	143.25
[1], 486.53 K, Liquid	–	–	–	169.02
[1], 494.28 K, Liquid	–	–	–	198.49
[1], 502.09 K, Liquid	–	–	–	232.02
[1], 509.97 K, Liquid	–	–	–	270.02
[1], 662.5 K, Gas	–	114.4	–	–
[1], 682.8 K, Gas	–	171.2	–	–
[1], 685.1 K, Liquid	–	366	–	–
[1], 687.3 K, Liquid	–	347.2	–	–
[1], 689.6 K, Liquid	–	311	–	–
[1], 689.8 K, Gas	–	244.4	–	–
[1], Liquid, DTA	690	–	–	–
[3], 10 K, Crystal 3, Vacuum adiabatic calorimetry	–	–	2.73 J/K/mol	–
[3], 11.5 K, Crystal 3, Vacuum adiabatic calorimetry	–	–	4.08 J/K/mol	–
[3], 11.8 K, Crystal 3, Vacuum adiabatic calorimetry	–	–	4.35 J/K/mol	–
[3], 13.17 K, Crystal 3, Vacuum adiabatic calorimetry	–	–	5.8 J/K/mol	–
[3], 13.37 K, Crystal 3, Vacuum adiabatic calorimetry	–	–	6.03 J/K/mol	–
[3], 14.83 K, Crystal 3, Vacuum adiabatic calorimetry	–	–	7.75 J/K/mol	–
[3], 14.99 K, Crystal 3, Vacuum adiabatic calorimetry	–	–	7.95 J/K/mol	–
[3], 16.64 K, Crystal 3, Vacuum adiabatic calorimetry	–	–	10.09 J/K/mol	–
[3], 16.69 K, Crystal 3, Vacuum adiabatic calorimetry	–	–	10.19 J/K/mol	–
[3], 18.46 K, Crystal 3, Vacuum adiabatic calorimetry	–	–	12.62 J/K/mol	–
[3], 18.63 K, Crystal 3, Vacuum adiabatic calorimetry	–	–	12.87 J/K/mol	–
[3], 20 K, Crystal 3, Vacuum adiabatic calorimetry	–	–	14.82 J/K/mol	–
[3], 20.51 K, Crystal 3, Vacuum adiabatic calorimetry	–	–	15.56 J/K/mol	–
[3], 20.71 K, Crystal 3, Vacuum adiabatic calorimetry	–	–	15.86 J/K/mol	–
[3], 22.72 K, Crystal 3, Vacuum adiabatic calorimetry	–	–	18.82 J/K/mol	–
[3], 22.99 K, Crystal 3, Vacuum adiabatic calorimetry	–	–	19.31 J/K/mol	–
[3], 25.1 K, Crystal 3, Vacuum adiabatic calorimetry	–	–	22.6 J/K/mol	–
[3], 25.32 K, Crystal 3, Vacuum adiabatic calorimetry	–	–	22.88 J/K/mol	–
[3], 27.67 K, Crystal 3, Vacuum adiabatic calorimetry	–	–	26.42 J/K/mol	–
[3], 30 K, Crystal 3, Vacuum adiabatic calorimetry	–	–	29.89 J/K/mol	–
[3], 30.51 K, Crystal 3, Vacuum adiabatic calorimetry	–	–	30.65 J/K/mol	–
[3], 33.62 K, Crystal 3, Vacuum adiabatic calorimetry	–	–	35.24 J/K/mol	–
[3], 37.09 K, Crystal 3, Vacuum adiabatic calorimetry	–	–	40.13 J/K/mol	–
[3], 40 K, Crystal 3, Vacuum adiabatic calorimetry	–	–	44.07 J/K/mol	–
[3], 40.84 K, Crystal 3, Vacuum adiabatic calorimetry	–	–	45.17 J/K/mol	–
[3], 44.81 K, Crystal 3, Vacuum adiabatic calorimetry	–	–	49.8 J/K/mol	–
[3], 49.26 K, Crystal 3, Vacuum adiabatic calorimetry	–	–	55.04 J/K/mol	–
[3], 50 K, Crystal 3, Vacuum adiabatic calorimetry	–	–	55.91 J/K/mol	–
[3], 54.23 K, Crystal 3, Vacuum adiabatic calorimetry	–	–	60.6 J/K/mol	–
[3], 54.24 K, Crystal 3, Vacuum adiabatic calorimetry	–	–	60.62 J/K/mol	–
[3], 59.45 K, Crystal 3, Vacuum adiabatic calorimetry	–	–	65.6 J/K/mol	–
[3], 60 K, Crystal 3, Vacuum adiabatic calorimetry	–	–	66.15 J/K/mol	–
[3], 65.02 K, Crystal 3, Vacuum adiabatic calorimetry	–	–	70.77 J/K/mol	–
[3], 70 K, Crystal 3, Vacuum adiabatic calorimetry	–	–	74.88 J/K/mol	–
[3], 71.12 K, Crystal 3, Vacuum adiabatic calorimetry	–	–	75.75 J/K/mol	–
[3], 77.81 K, Crystal 3, Vacuum adiabatic calorimetry	–	–	80.69 J/K/mol	–
[3], 80 K, Crystal 3, Vacuum adiabatic calorimetry	–	–	82.21 J/K/mol	–
[3], 84.9 K, Crystal 3, Vacuum adiabatic calorimetry	–	–	85.44 J/K/mol	–
[3], 90 K, Crystal 3, Vacuum adiabatic calorimetry	–	–	88.7 J/K/mol	–
[3], 90.4 K, Crystal 3, Vacuum adiabatic calorimetry	–	–	88.97 J/K/mol	–
[3], 92.15 K, Crystal 3, Vacuum adiabatic calorimetry	–	–	90 J/K/mol	–
[3], 95.17 K, Crystal 3, Vacuum adiabatic calorimetry	–	–	91.72 J/K/mol	–
[3], 97.64 K, Crystal 3, Vacuum adiabatic calorimetry	–	–	93.21 J/K/mol	–
[3], 100 K, Crystal 3, Vacuum adiabatic calorimetry	–	–	94.56 J/K/mol	–
[3], 102.4 K, Crystal 3, Vacuum adiabatic calorimetry	–	–	95.85 J/K/mol	–
[3], 105.1 K, Crystal 3, Vacuum adiabatic calorimetry	–	–	97.46 J/K/mol	–
[3], 110 K, Crystal 3, Vacuum adiabatic calorimetry	–	–	100.28 J/K/mol	–
[3], 112.84 K, Crystal 3, Vacuum adiabatic calorimetry	–	–	102.05 J/K/mol	–
[3], 116.54 K, Crystal 3, Vacuum adiabatic calorimetry	–	–	104.26 J/K/mol	–
[3], 118.13 K, Crystal 3, Vacuum adiabatic calorimetry	–	–	105.18 J/K/mol	–
[3], 118.17 K, Crystal 3, Vacuum adiabatic calorimetry	–	–	105.56 J/K/mol	–
[3], 120 K, Crystal 3, Vacuum adiabatic calorimetry	–	–	106.6 J/K/mol	–
[3], 120.99 K, Crystal 3, Vacuum adiabatic calorimetry	–	–	107.39 J/K/mol	–
[3], 126.75 K, Crystal 3, Vacuum adiabatic calorimetry	–	–	111.08 J/K/mol	–
[3], 128.4 K, Crystal 1, Vacuum adiabatic calorimetry	–	–	115.78 J/K/mol	–
[3], 128.4 K, Crystal 3, Vacuum adiabatic calorimetry	–	–	112.23 J/K/mol	–
[3], 130 K, Crystal 1, Vacuum adiabatic calorimetry	–	–	116.49 J/K/mol	–
[3], 133.46 K, Crystal 2, Vacuum adiabatic calorimetry	–	–	118.05 J/K/mol	–
[3], 133.78 K, Crystal 2, Vacuum adiabatic calorimetry	–	–	118.67 J/K/mol	–
[3], 134.12 K, Crystal 2, Vacuum adiabatic calorimetry	–	–	118.41 J/K/mol	–
[3], 135.2 K, Crystal 2, Vacuum adiabatic calorimetry	–	–	118.41 J/K/mol	–
[3], 139.41 K, Crystal 2, Vacuum adiabatic calorimetry	–	–	121.01 J/K/mol	–
[3], 140 K, Crystal 1, Vacuum adiabatic calorimetry	–	–	121.32 J/K/mol	–
[3], 142.47 K, Crystal 2, Vacuum adiabatic calorimetry	–	–	122.75 J/K/mol	–
[3], 143.12 K, Crystal 2, Vacuum adiabatic calorimetry	–	–	122.93 J/K/mol	–
[3], 150 K, Crystal 1, Vacuum adiabatic calorimetry	–	–	126.87 J/K/mol	–
[3], 151.25 K, Crystal 2, Vacuum adiabatic calorimetry	–	–	127.64 J/K/mol	–
[3], 152.11 K, Crystal 2, Vacuum adiabatic calorimetry	–	–	128.17 J/K/mol	–
[3], 160 K, Crystal 1, Vacuum adiabatic calorimetry	–	–	133.12 J/K/mol	–
[3], 160.68 K, Crystal 2, Vacuum adiabatic calorimetry	–	–	133.74 J/K/mol	–
[3], 160.78 K, Crystal 2, Vacuum adiabatic calorimetry	–	–	133.46 J/K/mol	–
[3], 166.89 K, Crystal 2, Vacuum adiabatic calorimetry	–	–	138.79 J/K/mol	–
[3], 170 K, Crystal 1, Vacuum adiabatic calorimetry	–	–	140.08 J/K/mol	–
[3], 171.5 K, Crystal 1, Vacuum adiabatic calorimetry	–	–	141.19 J/K/mol and 136.32 J/K/mol	–
[3], 173.81 K, Crystal 1, Vacuum adiabatic calorimetry	–	–	137.58 J/K/mol	–
[3], 178.13 K, Crystal 1, Vacuum adiabatic calorimetry	–	–	139.77 J/K/mol	–
[3], 180 K, Crystal 1, Vacuum adiabatic calorimetry	–	–	141.36 J/K/mol	–
[3], 181.67 K, Crystal 1, Vacuum adiabatic calorimetry	–	–	142.75 J/K/mol	–
[3], 182.42 K, Crystal 1, Vacuum adiabatic calorimetry	–	–	143.41 J/K/mol	–
[3], 186.12 K, Crystal 1, Vacuum adiabatic calorimetry	–	–	145.42 J/K/mol	–
[3], 190 K, Crystal 1, Vacuum adiabatic calorimetry	–	–	148.08 J/K/mol	–
[3], 190.41 K, Crystal 1, Vacuum adiabatic calorimetry	–	–	148.06 J/K/mol	–
[3], 194.17 K, Crystal 1, Vacuum adiabatic calorimetry	–	–	151.17 J/K/mol	–
[3], 200 K, Crystal 1, Vacuum adiabatic calorimetry	–	–	155.66 J/K/mol	–
[3], 202.37 K, Crystal 1, Vacuum adiabatic calorimetry	–	–	157.69 J/K/mol	–
[3], 210 K, Crystal 1, Vacuum adiabatic calorimetry	–	–	164.11 J/K/mol	–
[3], 210.53 K, Crystal 1, Vacuum adiabatic calorimetry	–	–	164.59 J/K/mol	–
[3], 215.22 K, Crystal 1, Vacuum adiabatic calorimetry	–	–	168.8 J/K/mol	–
[3], 218.83 K, Crystal 1, Vacuum adiabatic calorimetry	–	–	172.67 J/K/mol	–
[3], 220 K, Crystal 1, Vacuum adiabatic calorimetry	–	–	173.41 J/K/mol	–
[3], 223.28 K, Crystal 1, Vacuum adiabatic calorimetry	–	–	177.54 J/K/mol	–
[3], 230 K, Crystal 1, Vacuum adiabatic calorimetry	–	–	183.54 J/K/mol	–
[3], 230.93 K, Crystal 1, Vacuum adiabatic calorimetry	–	–	187.18 J/K/mol	–
[3], 237.82 K, Crystal 1, Vacuum adiabatic calorimetry	–	–	192.05 J/K/mol	–
[3], 420 K, Liquid	–	–	312.05 J/K/mol	–
[3], 440 K, Liquid	–	–	324.49 J/K/mol	–
[3], 460 K, Liquid	–	–	336.88 J/K/mol	–
[3], 480 K, Liquid	–	–	349.1 J/K/mol	–
[3], 500 K, Liquid	–	–	361.07 J/K/mol	–
[3], 520 K, Liquid	–	–	372.68 J/K/mol	–
[3], 540 K, Liquid	–	–	383.83 J/K/mol	–
[3], 560 K, Liquid	–	–	394.48 J/K/mol	–
[3], 580 K, Liquid	–	–	404.71 J/K/mol	–
[3], 600 K, Liquid	–	–	414.76 J/K/mol	–

Settings	Molar enthalpy of transition or fusion, Crystal 1 [kcal/mol]	Molar enthalpy of transition or fusion, Crystal 2 [kcal/mol]	Triple point temperature, Crystal 1 [K]	Triple point temperature, Crystal 2 [K]	Triple point temperature, Crystal 3 [K]
[1]	–	–	237.82	171.5	128.4
[2]	3.202	0.06142	–	–	–

[3], Liquid, Vacuum adiabatic calorimetry
Settings	molar heat capacity [J/K/mol]
235.7 K	209.39
237.82 K	210.18
240 K	211.02
242.86 K	212.18
250 K	215.09
251.35 K	215.65
251.38 K	215.6
260 K	219.43
260.38 K	219.61
260.4 K	219.59
269.99 K	224.12
270 K	224.11
279.85 K	228.87
280 K	228.97
289.97 K	234.24
290 K	234.26
298.15 K	238.69
300 K	239.71
300.32 K	239.88
303.62 K	241.76
312.36 K	246.68
320 K	251.11
321.76 K	252.14
331.4 K	257.76
340 K	262.83
340.79 K	263.29
350.44 K	269.11
360 K	274.85
360.31 K	275.02
369.98 K	281.03
379.48 K	286.87
380 K	287.22
388.81 K	292.97
400 K	299.69
